# Data reported in patent publication US8222290B2, “Substituted N-phenyl-bipyrrolidine ureas and therapeutic use thereof” (Sanofi, priority 2007, dated 2012).
# Where a name gives a salt, the structure may show the parent alone.
# Biological target: T1, rhesus H3 receptor (Macaca mulatta, UniProt Q865E1)
# T1 construct: rhesus monkey (Macacca Mulatta) 445 amino acid H3 receptor; (Genbank #AY231164); expressed in transfected cells; host or cells: Flp-In T-REx 293 Cell Line (Invitrogen), pcDNA5/FRT/TO, induced with tetracycline; membranes
# Assay: Rhesus H3 [3H]-Methylhistamine radioligand binding assay (SPA)
# Design: species or system rhesus monkey (Macacca Mulatta)
# Settings: [3H]-Methylhistamine 2 nM, rhesus H3 membranes, Cheng-Prusoff
# Procedure: Rhesus H3 membranes were prepared from the Flp-In T-REx 293 Cell Line (Invitrogen) stably transfected with pcDNA5/FRT/TO (Invitrogen) containing the rhesus monkey (Macacca Mulatta) 445 amino acid H3 receptor. (Genbank #AY231164). Stably transfected cultures were amplified in tissue culture flasks by standard tissue culture methods and induced to express rhesus H3 by exposure to 500 ng/ml tetracycline (Cellgro) for 24 hours. After induction, cells were dissociated from flasks utilizing Cell Stripper (Cellgro). Cells were centrifuged (1K×g, 5 min) and pellet frozen in an ethanol-dry ice bath to disrupt cell membranes. Frozen cell pellet was re-suspended in 5 mM HEPES (pH 7.4, Invitrogen) at 10 ml/1000 cm2 of harvested cells. The cell suspension was drawn through an 18 gauge needle (2-3×) followed by a 23 gauge needle (2-3×) to further disrupt cell membranes. The cell suspension was centrifuged (40K×g, 30 min). Cell membrane pellet was re-suspended in 5 mM HEPES (pH 7.4, Invitrogen) at a final protein concentration of 10 mg/ml. Rhesus H3 membranes were stored under liquid nitrogen prior to use in [3H]-Methylhistamine and GTPγS radioligand binding assays.
# Rhesus H3 radioligand binding assay was performed using rhesus H3 receptor membranes (prepared as described above), [3H]-Methylhistamine (Perkin Elmer) and WGA SPA beads (wheat germ agglutinin scintillation proximity assay) beads (Amersham). The assay was performed in 96-well Opti-Plates (Packard). Each reaction contained 50 μl rhesus H3 membranes (20-30 μg total protein), 50 μl WGA SPA beads (0.1 μg) and 50 μl of 83Ci/mmol [^3H]-Methylhistamine (final concentration 2 nM) and 50 μl of tested compound. The compounds of this invention and/or vehicle were diluted with binding buffer from 10 mM DMSO stocks. Assay plates were sealed with TopSeal (Perkin Elmer) and mixed on shaker (25° C., 1 hour). Assay plates were read on TopCount scintillation counter (Packard). Results were analyzed by Hill transformation and Ki values were determined by Cheng-Prusoff equation.
# T1 sequence (Q865E1 1-445): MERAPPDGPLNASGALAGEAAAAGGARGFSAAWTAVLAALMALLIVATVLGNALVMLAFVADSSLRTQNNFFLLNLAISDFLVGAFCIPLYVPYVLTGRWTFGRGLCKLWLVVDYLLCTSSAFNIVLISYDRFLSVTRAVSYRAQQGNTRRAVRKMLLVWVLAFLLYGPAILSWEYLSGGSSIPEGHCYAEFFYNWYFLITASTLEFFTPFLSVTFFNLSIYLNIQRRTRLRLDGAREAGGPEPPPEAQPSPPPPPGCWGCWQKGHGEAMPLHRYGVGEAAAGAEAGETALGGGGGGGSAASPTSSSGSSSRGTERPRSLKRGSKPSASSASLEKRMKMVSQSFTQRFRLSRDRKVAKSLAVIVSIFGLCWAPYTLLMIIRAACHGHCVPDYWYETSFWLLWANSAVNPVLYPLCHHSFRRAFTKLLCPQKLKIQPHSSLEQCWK
row,Ki [nM],Compound
1,6,"CC1CCCN1C1CCN(c2ccc(NC(=O)N3CCCCC3)cc2)C1 (stereo not shown) [Example 1, Piperidine-1-carboxylic acid [4-(2-methyl-[1,3′]bipyrrolidinyl-1′-yl)-phenyl]-amide trifluoroacetate]"
2,89.7,"CC(=O)N(C)C1CCN(C(=O)Nc2ccc(N3CCC(N4CCCC4C)C3)c(C)c2)C1 (stereo not shown) [Example 2, 3-(Acetyl-methyl-amino)-pyrrolidine-1-carboxylic acid [3-methyl-4-(2-methyl-[1,3′]bipyrrolidinyl-1′-yl)-phenyl]-amide trifluoroacetate]"
3,4.1,"CC1CCCN1C1CCN(c2ccc(NC(=O)NC3CCCCC3)cc2)C1 (stereo not shown) [Example 3, 1-Cyclohexyl-3-[4-(2-methyl-[1,3′]bipyrrolidinyl-1′-yl)-phenyl]-urea trifluoroacetate]"
4,10.6,"CC1CCCN1C1CCN(c2ccc(NC(=O)N3CCN(c4ccccc4)CC3)cc2)C1 (stereo not shown) [Example 4, 4-Phenyl-piperazine-1-carboxylic acid [4-(2-methyl-[1,3′]bipyrrolidinyl-1′-yl)-phenyl]-amide trifluoroacetate]"
5,11.1,"CC1CCCN1C1CCN(c2ccc(NC(=O)N3Cc4ccccc4C3)cc2)C1 (stereo not shown) [Example 6, 1,3-Dihydro-isoindole-2-carboxylic acid [4-(2-methyl-[1,3′]bipyrrolidinyl-1′-yl)-phenyl]-amide trifluoroacetate]"
6,7.7,"CC1CCCN1C1CCN(c2ccc(NC(=O)Nc3cccc(C#N)c3)cc2)C1 (stereo not shown) [Example 7, 1-(3-Cyano-phenyl)-3-[4-(2-methyl-[1,3′]bipyrrolidinyl-1′-yl)-phenyl]-urea trifluoroacetate]"
7,2,"CC1CCCN1C1CCN(c2ccc(NC(=O)NCc3cccs3)cc2)C1 (stereo not shown) [Example 8, 1-[4-(2-Methyl-[1,3′]bipyrrolidinyl-1′-yl)-phenyl]-3-thiophen-2-ylmethyl-urea trifluoroacetate]"
8,28.9,"Cc1cc(NC(=O)NCc2cc(Cl)cc(Cl)c2)ccc1N1CCC(N2CCCC2C)C1 (stereo not shown) [Example 9, 1-(3,5-Dichloro-benzyl)-3-[3-methyl-4-(2-methyl-[1,3′]bipyrrolidinyl-1′-yl)-phenyl]-urea trifluoroacetate]"
9,11.2,"Cc1cc(NC(=O)NC2CCCCC2)ccc1N1CCC(N2CCCC2C)C1 (stereo not shown) [Example 10, 1-Cyclohexyl-3-[3-methyl-4-(2-methyl-[1,3′]bipyrrolidinyl-1′-yl)-phenyl]-urea trifluoroacetate]"
10,8.4,"Cc1cc(NC(=O)NCc2cccs2)ccc1N1CCC(N2CCCC2C)C1 (stereo not shown) [Example 11, 1-[3-Methyl-4-(2-methyl-[1,3′]bipyrrolidinyl-1′-yl)-phenyl]-3-thiophen-2-ylmethyl-urea trifluoroacetate]"
11,19.1,"CC1CCCN1C1CCN(c2ccc(NC(=O)Nc3cc(Cl)cc(Cl)c3)cc2)C1 (stereo not shown) [Example 12, 1-(3,5-Dichloro-phenyl)-3-[4-(2-methyl-[1,3′]bipyrrolidinyl-1′-yl)-phenyl]-urea trifluoroacetate]"
12,34.1,"CC(=O)N1CCN(C(=O)Nc2ccc(N3CCC(N4CCCC4C)C3)cc2)CC1 (stereo not shown) [Example 13, 4-Acetyl-piperazine-1-carboxylic acid [4-(2-methyl-[1,3′]bipyrrolidinyl-1′-yl)-phenyl]-amide trifluoroacetate]"
13,35.5,"CC(=O)N(C)C1CCN(C(=O)Nc2ccc(N3CCC(N4CCCC4C)C3)cc2)C1 (stereo not shown) [Example 14, 3-(Acetyl-methyl-amino)-pyrrolidine-1-carboxylic acid [4-(2-methyl-[1,3′]bipyrrolidinyl-1′-yl)-phenyl]-amide trifluoroacetate]"
14,4.6,"Cc1cc(N2CCC(N3CCCC3C)C2)ccc1NC(=O)NC1CCCCC1 (stereo not shown) [Example 16, 1-Cyclohexyl-3-[2-methyl-4-(2-methyl-[1,3′]bipyrrolidinyl-1′-yl)-phenyl]-urea trifluoroacetate]"
15,10.5,"Cc1cc(N2CCC(N3CCCC3C)C2)ccc1NC(=O)N1CCN(C)CC1 (stereo not shown) [Example 17, 4-Methyl-piperazine-1-carboxylic acid [2-methyl-4-(2-methyl-[1,3′]bipyrrolidinyl-1′-yl)-phenyl]-amide trifluoroacetate]"
16,10.8,"Cc1cc(N2CCC(N3CCCC3C)C2)ccc1NC(=O)N1Cc2ccccc2C1 (stereo not shown) [Example 18, 1,3-Dihydro-isoindole-2-carboxylic acid [2-methyl-4-(2-methyl-[1,3′]bipyrrolidinyl-1′-yl)-phenyl]-amide trifluoroacetate]"
17,43,"Cc1cc(NC(=O)Nc2cc(Cl)cc(Cl)c2)ccc1N1CCC(N2CCCC2C)C1 (stereo not shown) [Example 19, 1-(3,5-Dichloro-phenyl)-3-[3-methyl-4-(2-methyl-[1,3′]bipyrrolidinyl-1′-yl)-phenyl]-urea trifluoroacetate]"
18,12.7,"Cc1cc(NC(=O)N2CCN(C)CC2)ccc1N1CCC(N2CCCC2C)C1 (stereo not shown) [Example 20, 4-Methyl-piperazine-1-carboxylic acid [3-methyl-4-(2-methyl-[1,3′]bipyrrolidinyl-1′-yl)-phenyl]-amide trifluoroacetate]"
19,8,"Cc1cc(NC(=O)N2Cc3ccccc3C2)ccc1N1CCC(N2CCCC2C)C1 (stereo not shown) [Example 21, 1,3-Dihydro-isoindole-2-carboxylic acid [3-methyl-4-(2-methyl-[1,3′]bipyrrolidinyl-1′-yl)-phenyl]-amide trifluoroacetate]"
20,23,"CC(=O)N1CCN(C(=O)Nc2ccc(N3CCC(N4CCCC4C)C3)c(C)c2)CC1 (stereo not shown) [Example 22, 4-Acetyl-piperazine-1-carboxylic acid [3-methyl-4-(2-methyl-[1,3′]bipyrrolidinyl-1′-yl)-phenyl]-amide trifluoroacetate]"
21,6.3,"Cc1cc(NC(=O)Nc2cccc(C#N)c2)ccc1N1CCC(N2CCCC2C)C1 (stereo not shown) [Example 23, 1-(3-Cyano-phenyl)-3-[3-methyl-4-(2-methyl-[1,3′]bipyrrolidinyl-1′-yl)-phenyl]-urea trifluoroacetate]"
22,29,"Cc1cc(NC(=O)N2CCCCC2)ccc1N1CCC(N2CCCC2C)C1 (stereo not shown) [Example 24, Piperidine-1-carboxylic acid [3-methyl-4-(2-methyl-[1,3′]bipyrrolidinyl-1′-yl)-phenyl]-amide trifluoroacetate]"
23,18.1,"CC1CCCN1C1CCN(c2ccc(NC(=O)NCc3cc(Cl)cc(Cl)c3)c(C(F)(F)F)c2)C1 (stereo not shown) [Example 25, 1-(3,5-Dichloro-benzyl)-3-[4-(2-methyl-[1,3′]bipyrrolidinyl-1′-yl)-2-trifluoromethyl-phenyl]-urea trifluoroacetate]"

row,Compound,Ki [nM]
1,"CC1CCCN1C1CCN(c2ccc(NC(=O)N3CCN(C)CC3)cc2)C1 (stereo not shown) [Example 5, 4-Methyl-piperazine-1-carboxylic acid [4-(2-methyl-[1,3′]bipyrrolidinyl-1′-yl)-phenyl]-amide trifluoroacetate]",25.7
2,"Cc1cc(N2CCC(N3CCCC3C)C2)ccc1NC(=O)Nc1cc(Cl)cc(Cl)c1 (stereo not shown) [Example 15, 1-(3,5-Dichloro-phenyl)-3-[2-methyl-4-(2-methyl-[1,3′]bipyrrolidinyl-1′-yl)-phenyl]-urea trifluoroacetate]",22.2
